These results are taken from patent US20230346654A1, “Anhydrous Urea Emulsions” (BAEK CLINICAL INC., priority 2020, published 2023).

Where two headings read alike, the source gives them in different places.

For series [1] the following is noted: stated as well-known; cited from earlier work.
The nature of series [2]: Assessment of solvents: ability to solubilize urea. To be noted: neat solvent.
Series [3] is described as follows: Solubility of optional additional components in non-aqueous solvents. It counts as physicochemical. The source says: (§1) AA refers to L-ascorbic acid. U refers to urea. % values are wt %.
The conditions of series [4]: in vivo; cited from earlier work.
For series [5] the following is noted: concentrations of 0.2%; cited from earlier work.
Series [6] can be described thus: Assessment of solvents: gentleness or irritation on skin. To be noted: applied to skin; 1,3-propanediol even applied neat, or at 100% concentration.
Source text: as §1

For series [7] the following is noted: in most solvents; cited from earlier work.

With `CC(O)CO` (stereo not drawn) [1,2-propanediol], in series [1], the “skin irritation and sensitivity” value is “inducing skin irritation and sensitivity”. The “ability to solubilize urea” value in series [2] is listed as “moderate”. Take `OCC(O)CO` [Glycerin, glycerol (1,2,3-propanetriol)]: the “ability to solubilize urea” value in series [2] is recorded as “moderate”. On to `CC1(C)[C@@H](O[C@H]2O[C@H](C(=O)O)[C@@H](O)[C@H](O)[C@H]2O[C@@H]2O[C@H](C(=O)O)[C@@H](O)[C@H](O)[C@H]2O)CC[C@]2(C)[C@H]3C(=O)C=C4[C@@H]5C[C@@](C)(C(=O)O)CC[C@]5(C)CC[C@@]4(C)[C@]3(C)CC[C@@H]12` [glycyrrhizic acid, Glycyrrhizic acid], for which, in series [3] (in 1,3-propanediol), the “solubility” value is “shows solubility”.

In the case of `COc1cc(CC(C(C)=O)C(C)=O)ccc1O` [Acetyl zingerone], the “solubility” value in series [3] (in 1,3 propanediol, 1,2 propanediol and 1,3 butanediol at 0.5-1%) was “readily soluble”.

In the case of `CC(C)(CO)[C@@H](O)C(=O)NCCCO` [Panthenol], the “concentration at which inhibition of transepidermal water loss is apparent” value in series [4] is reported as at least 1%. Regarding Madecassoside, in series [3] (at a concentration of 0.2% in 1,3 propanediol, 1,2 propanediol and 1,3 butanediol), the “solubility” value was “soluble”. For the same compound, the “ability to reduce erythema (skin redness)” value in series [5] is on record as “desirable ability to reduce erythema”. For the compound `CO[C@H]1CO[C@H]2[C@@H]1OC[C@H]2OC` [Dimethyl isosorbide], in series [2], the “ability to solubilize urea” value is “very limited”. Take `CC(O)CCO` (stereo not drawn) [1,3-butanediol]: in series [6], the gentleness on skin result was “relatively gentle on skin”. Turning to `OCCCCCO` [1,5-pentanediol], the “ability to solubilize urea” value in series [2] is given as “moderate”.

`OCC(O)COCC(O)CO` (stereo not drawn) [diglycerin]: the “ability to solubilize urea” value in series [2] is listed as “moderate”. Same read-out and setting: the result for `CCCCC(O)CO` (stereo not drawn) [1,2-hexanediol] reads “moderate”. For `OCCCO` [1,3-propanediol], the gentleness on skin entry in series [6] is listed as “gentleness on skin”. As to `O=C(O)CCCCCCCC(=O)O` [AzA, Azelaic acid, reference compound], the “concentration that can be solubilized” value is “up to 10%” in series [3] (in 1,3 propanediol) and 7.5% in series [3] (with 10% AA, 5% U in a 1,3 propanediol base). Besides, the “change of solubility in 1,3 propanediol” value in series [3] (in the presence of hydroxyethyl urea) is listed as “slightly increased”. The “solubility” value in series [7] is given as “very poorly soluble”.
